Results from PubChem BioAssay (NCI).
Values joined by “and” are separate entries in the source; they are usually repeats but may differ in a detail not shown here. Equal values may be shown once.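 Five compound concentrations were applied to cells in 96-well plates for 48 hours; endpoints were derived by simple linear interpolation of the resulting dose-response curve. GI50 is the concentration that inhibits growth by half. TGI: total growth inhibition.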

Legend:
Test in all cases: NCI anticancer screen, dose series, 48 h
PC-3 prostate = system: PC-3 prostate
HCC-2998 colon = system: HCC-2998 colon
SF-295 CNS = system: SF-295 CNS
OVCAR-4 ovarian = system: OVCAR-4 ovarian
SNB-19 CNS = system: SNB-19 CNS
HCT-116 colon = system: HCT-116 colon
EKVX NSCLC = system: EKVX NSCLC
A549 NSCLC = system: A549 NSCLC
KM12 colon = system: KM12 colon
SK-MEL-28 melanoma = system: SK-MEL-28 melanoma
ACHN renal = system: ACHN renal
HL-60(TB) leukemia = system: HL-60(TB) leukemia
SF-268 CNS = system: SF-268 CNS
SR leukemia = system: SR leukemia
SK-MEL-5 melanoma = system: SK-MEL-5 melanoma
HOP-92 NSCLC = system: HOP-92 NSCLC
T-47D breast = system: T-47D breast
UACC-257 melanoma = system: UACC-257 melanoma
RXF 393 renal = system: RXF 393 renal
CAKI-1 renal = system: CAKI-1 renal
HCT-15 colon = system: HCT-15 colon
MDA-MB-435 = system: MDA-MB-435
HT29 colon = system: HT29 colon
CCRF-CEM leukemia = system: CCRF-CEM leukemia
NCI-H23 lung = system: NCI-H23 lung
SN12C renal = system: SN12C renal
HOP-62 NSCLC = system: HOP-62 NSCLC
MALME-3M melanoma = system: MALME-3M melanoma
UACC-62 melanoma = system: UACC-62 melanoma
COLO 205 colon = system: COLO 205 colon
NCI/ADR-RES ovarian = system: NCI/ADR-RES ovarian
MOLT-4 leukemia = system: MOLT-4 leukemia
LOX IMVI melanoma = system: LOX IMVI melanoma
U251 CNS = system: U251 CNS
UO-31 renal = system: UO-31 renal
OVCAR-3 ovarian = system: OVCAR-3 ovarian
MDA-MB-231 breast = system: MDA-MB-231 breast
TK-10 renal = system: TK-10 renal
NCI-H226 lung = system: NCI-H226 lung
K-562 leukemia = system: K-562 leukemia
DU-145 prostate = system: DU-145 prostate
786-0 renal = system: 786-0 renal
NCI-H522 lung = system: NCI-H522 lung
OVCAR-5 ovarian = system: OVCAR-5 ovarian
M14 melanoma = system: M14 melanoma
SK-OV-3 ovarian = system: SK-OV-3 ovarian
SW-620 colon = system: SW-620 colon
SF-539 CNS = system: SF-539 CNS
NCI-H460 lung = system: NCI-H460 lung
MDA-N = system: MDA-N
SK-MEL-2 melanoma = system: SK-MEL-2 melanoma
A498 renal = system: A498 renal
IGROV1 ovarian = system: IGROV1 ovarian
RPMI-8226 leukemia = system: RPMI-8226 leukemia
SNB-75 CNS = system: SNB-75 CNS
BT-549 breast = system: BT-549 breast
MCF7 breast = system: MCF7 breast
OVCAR-8 ovarian = system: OVCAR-8 ovarian
HS 578T breast = system: HS 578T breast

In the case of `Cc1[nH]c(/C=C2\C(=O)Nc3ccccc32)c(C)c1CCC(=O)O`, the GI50 (PC-3 prostate) is reported as 31.4 µM, the TGI (PC-3 prostate) is reported as over 100 µM and the TGI (HCC-2998 colon) is reported as over 100 µM. For the same molecule, the GI50 (SF-295 CNS) was 24.9 µM, the TGI (SF-295 CNS) was over 100 µM and the TGI (OVCAR-4 ovarian) was over 100 µM. It also gave a GI50 (SNB-19 CNS) of 20.9 µM, a TGI (SNB-19 CNS) of over 100 µM and a GI50 (HCT-116 colon) of 25.9 µM. The TGI (HCT-116 colon) was over 100 µM, the GI50 (EKVX NSCLC) was 20.9 µM and the TGI (EKVX NSCLC) was 89.9 µM and 97.4 µM. For the same molecule, the GI50 (A549 NSCLC) was 24.3 µM, the TGI (A549 NSCLC) was over 100 µM and the GI50 (KM12 colon) was 7.79 µM. The TGI (KM12 colon) was 51.2 µM and > 100 µM, the GI50 (SK-MEL-28 melanoma) was 25.4 µM and the TGI (SK-MEL-28 melanoma) was 80 µM and 92.6 µM. The TGI (ACHN renal) was over 100 µM, the GI50 (HL-60(TB) leukemia) was 20.2 µM and the TGI (HL-60(TB) leukemia) was 45.8 µM. For the same molecule, the GI50 (SF-268 CNS) was 25.1 µM, the TGI (SF-268 CNS) was over 100 µM and the GI50 (SR leukemia) was 19.7 µM. For the same molecule, the TGI (SR leukemia) was 48.7 µM and 57.9 µM, the GI50 (SK-MEL-5 melanoma) was 19.8 µM and the TGI (SK-MEL-5 melanoma) was 48.7 µM and 81.5 µM. For the same molecule, the GI50 (HOP-92 NSCLC) was 12.7 µM, the TGI (HOP-92 NSCLC) was 43.2 µM and 62.8 µM and the TGI (T-47D breast) was over 100 µM. The GI50 (UACC-257 melanoma) was 20.4 µM, the TGI (UACC-257 melanoma) was 63 µM and 81.1 µM and the GI50 (RXF 393 renal) was 19.2 µM. The TGI (RXF 393 renal) was 63.3 µM and 90.5 µM, the GI50 (CAKI-1 renal) was 15.9 µM and the TGI (CAKI-1 renal) was 68.1 µM and > 100 µM. For the same molecule, the TGI (HCT-15 colon) was over 100 µM, the GI50 (MDA-MB-435) was 23.5 µM and the TGI (MDA-MB-435) was 84.2 µM and > 100 µM. For the same molecule, the GI50 (HT29 colon) was 27 µM, the TGI (HT29 colon) was over 80.8 µM and the GI50 (CCRF-CEM leukemia) was 28.3 µM. For the same molecule, the TGI (CCRF-CEM leukemia) was over 100 µM, the GI50 (NCI-H23 lung) was 20.3 µM and the TGI (NCI-H23 lung) was 73.4 µM and > 100 µM. For the same molecule, the GI50 (SN12C renal) was 24.7 µM, the TGI (SN12C renal) was over 100 µM and the GI50 (HOP-62 NSCLC) was 23.7 µM. For the same molecule, the TGI (HOP-62 NSCLC) was over 100 µM, the GI50 (MALME-3M melanoma) was 10.7 µM and the TGI (MALME-3M melanoma) was 36.8 µM and 75.6 µM. The GI50 (UACC-62 melanoma) was 17.7 µM, the TGI (UACC-62 melanoma) was 58.1 µM and 95.6 µM and the TGI (COLO 205 colon) was 43 µM and 45.9 µM. The TGI (NCI/ADR-RES ovarian) was over 100 µM, the GI50 (MOLT-4 leukemia) was 26.5 µM and the TGI (MOLT-4 leukemia) was 69.4 µM and 84.4 µM. For the same molecule, the GI50 (LOX IMVI melanoma) was 23.1 µM, the TGI (LOX IMVI melanoma) was 75.9 µM and 89.2 µM and the GI50 (U251 CNS) was 38.1 µM. For the same molecule, the TGI (U251 CNS) was over 100 µM, the GI50 (UO-31 renal) was 11.6 µM and the TGI (UO-31 renal) was 43.6 µM and > 100 µM. The GI50 (OVCAR-3 ovarian) was 28.8 µM, the TGI (OVCAR-3 ovarian) was > 100 µM and 73.3 µM and the GI50 (MDA-MB-231 breast) was 20.7 µM. For the same molecule, the TGI (MDA-MB-231 breast) was > 73.7 µM and 75.9 µM, the GI50 (TK-10 renal) was 35 µM and the TGI (TK-10 renal) was over 100 µM. The GI50 (NCI-H226 lung) was 15.2 µM, the TGI (NCI-H226 lung) was 42.6 µM and the TGI (K-562 leukemia) was over 100 µM. For the same molecule, the GI50 (DU-145 prostate) was 35.4 µM, the TGI (DU-145 prostate) was over 100 µM and the GI50 (786-0 renal) was 44.1 µM. It also gave a TGI (786-0 renal) of over 100 µM, a TGI (NCI-H522 lung) of over 100 µM and a GI50 (OVCAR-5 ovarian) of 21.5 µM. The TGI (OVCAR-5 ovarian) was 81.8 µM and 97.4 µM, the GI50 (M14 melanoma) was 17 µM and the TGI (M14 melanoma) was 49.3 µM and 58.8 µM. The GI50 (SK-OV-3 ovarian) was 19.5 µM, the TGI (SK-OV-3 ovarian) was 59.5 µM and 80.6 µM and the GI50 (SW-620 colon) was 18.8 µM. For the same molecule, the TGI (SW-620 colon) was 52.8 µM and 71.1 µM, the GI50 (SF-539 CNS) was 12.3 µM and the TGI (SF-539 CNS) was 42.2 µM. The GI50 (NCI-H460 lung) was 21.3 µM, the TGI (NCI-H460 lung) was 57 µM and > 100 µM and the TGI (MDA-N) was over 100 µM. The TGI (SK-MEL-2 melanoma) was 38.5 µM and 38.8 µM, the GI50 (A498 renal) was 21.4 µM and the TGI (A498 renal) was 61.7 µM and > 100 µM. For the same molecule, the TGI (IGROV1 ovarian) was over 100 µM, the TGI (RPMI-8226 leukemia) was 65 µM and 75.3 µM and the TGI (SNB-75 CNS) was 56.1 µM and 59.8 µM. The GI50 (BT-549 breast) was 22.5 µM, the TGI (BT-549 breast) was 73.9 µM and > 100 µM and the GI50 (MCF7 breast) was 23.9 µM. For the same molecule, the TGI (MCF7 breast) was over 100 µM, the GI50 (OVCAR-8 ovarian) was 34.7 µM and the TGI (OVCAR-8 ovarian) was over 100 µM. For the same molecule, the GI50 (HS 578T breast) was 9.45 µM and the TGI (HS 578T breast) was 51.9 µM and > 100 µM.
